Legend:
Assay in all cases: Antimicrobial activity (MIC), agar diluting method
Type in all cases: cell-based
[1] = tested on: Bacillus subtilis (ATCC 6633); conditions: ATCC6633, Mueller Hinton agar, 35° C., 18 hours
Protocol: (§1) (1) Antimicrobial activity test
(§2) The antimicrobial activity was measured by the agar diluting method in accordance with the Standardized Method of the Japanese Society of Chemotherapy. A twofold dilution of a test compound was prepared by using M/50 phosphate buffer (pH 7.0). One milliliter of this solution and 9 ml of a Mueller Hinton agar medium (made by Difco Laboratories were mixed in a Petri dish having a diameter of 9 cm to prepare plates. A test microorganism was cultured overnight in a stationary condition at 35° C. in a Mueller-Hinton broth (made by Difco) and diluted with physiological saline to provide a cell density of about 10 ^6 cells/ml. Five microliter of the microorganism suspension was inoculated on the agar plates using a microplanter (made by Sakuma Seisakusho). The plates were incubated at 35° C. for 18 hours. The lowest concentration of the test compound at which the growth of the microorganism was completed inhibited is defined as the minimum inhibitory concentration (MIC) of the test compound against the test organism.

[2] = tested on: Comamonas terrigena (B 996); conditions: Mueller Hinton agar, 35° C., 18 hours
Protocol: as §1, §2

[3] = tested on: Micrococcus luteus (ATCC 9341); conditions: ATCC9341, Mueller Hinton agar, 35° C., 18 hours
Protocol: as §1, §2

[4] = tested on: Staphylococcus aureus (FDA 209 p); conditions: FDA209, Mueller Hinton agar, 35° C., 18 hours
Protocol: as §1, §2

MIC [1] [µg/mL] | MIC [2] [µg/mL] | MIC [3] [µg/mL] | MIC [4] [µg/mL] | Structure (SMILES)
6.25 | 0.39 | 3.13 | 0.39 | COC(=O)N(C)[C@H]1C(=O)N2C(C(=O)O)=C(SCCNC(C)=O)C[C@H]12 [[22], sodium (5R,6R)-6-(N-carbomethoxy-N-methyl)amino-3-acetamidoethylthio-1-azabicyclo[3.2.0]hept-2-ene-7-one-2-carboxylate]
1.56 | 1.56 | 1.56 | 0.2 | CC(=O)NCCSC1=C(C(=O)O)N2C(=O)[C@H](N(C)C(=O)OCc3ccccc3)[C@H]2C1 [[14], sodium (5R,6R)-3-(2-acetamidoethylthio)-6-(N-benzyloxycarbonyl)methylamino-7-oxo-1-azabicyclo[3.2.0]hept-2-ene-2-carboxylate]
1.56 | 3.13 | 0.78 | 0.2 | CC(=O)NCCSC1=C(C(=O)O)N2C(=O)[C@H](N(C)S(C)(=O)=O)[C@H]2C1 [[29], sodium (5R,6R)-3-(2-acetamidoethylthio)-6-(N-methanesulfonyl)methylamino-7-oxo-1-azabicyclo[3.2.0]hept-2-ene-2-carboxylate]

From patent publication US4996314A, “6-(disubstituted amino)carbapenem compounds” (Sanraku Incorporated, priority 1986, dated 1991)
